# Results taken from ChEMBL document CHEMBL1149687, “Development of oligoarginine-drug conjugates linked to new peptidic self-cleavable spacers toward effective intestinal absorption” (Bioorg Med Chem Lett, 2007).
# System: Caco-2
# Test: Apparent permeability across Caco-2 cells
# Type: functional, cell-based
# Details: Homo sapiens
row,SMILES,Papp
1,C[C@@H](NC(=O)CCC(=O)OCCNC(=S)Nc1ccc(-c2c3ccc(=O)cc-3oc3cc(O)ccc23)c(C(=O)O)c1)C(=O)NCCCC(=O)N[C@H](CCCNC(=N)N)C(=O)N[C@H](CCCNC(=N)N)C(=O)N[C@H](CCCNC(=N)N)C(=O)N[C@H](CCCNC(=N)N)C(=O)N[C@H](CCCNC(=N)N)C(=O)N[C@H](CCCNC(=N)N)C(=O)N[C@H](CCCNC(=N)N)C(N)=O,0.41 ×10⁻⁶ cm/s
2,N=C(N)NCCC[C@@H](NC(=O)[C@@H](CCCNC(=N)N)NC(=O)[C@@H](CCCNC(=N)N)NC(=O)[C@@H](CCCNC(=N)N)NC(=O)[C@@H](CCCNC(=N)N)NC(=O)[C@@H](CCCNC(=N)N)NC(=O)[C@@H](CCCNC(=N)N)NC(=O)CCCNC(=O)[C@@H](CN)NC(=O)CCC(=O)OCCNC(=S)Nc1ccc(-c2c3ccc(=O)cc-3oc3cc(O)ccc23)c(C(=O)O)c1)C(N)=O,0.75 ×10⁻⁶ cm/s
3,O=C(O)c1cc(NC(=S)NCCO)ccc1-c1c2ccc(=O)cc-2oc2cc(O)ccc12,0.26 ×10⁻⁶ cm/s
4,CC(N)[C@@H](NC(=O)CCC(=O)OCCNC(=S)Nc1ccc(-c2c3ccc(=O)cc-3oc3cc(O)ccc23)c(C(=O)O)c1)C(=O)NCCCC(=O)N[C@H](CCCNC(=N)N)C(=O)N[C@H](CCCNC(=N)N)C(=O)N[C@H](CCCNC(=N)N)C(=O)N[C@H](CCCNC(=N)N)C(=O)N[C@H](CCCNC(=N)N)C(=O)N[C@H](CCCNC(=N)N)C(=O)N[C@H](CCCNC(=N)N)C(N)=O (some centres undefined),0.48 ×10⁻⁶ cm/s
